Measurements: US11419814B2, “Transdermal compositions of ibuprofen and methods of use thereof” (Aponia Laboratories, Inc., priority 2011, dated 2022)
Where “and” joins values, the source holds several entries; their conditions need not be identical. Equal values may be shown once.

Test system: EpiSkin (reconstructed human epidermis)
Assay: In vitro dermal irritation EpiSkin test (MTT viability)
Protocol: The SkinEthic EpiSkin® test system has been validated by OECD test method (439) as an in vitro model to assess skin irritation potential. The test uses human keratinocytes derived from healthy donors, grown in vitro to reconstruct a functional model of the human epidermis.
EpiSkin® units were shipped on transport agar in sterile plates of 12 individual units. Upon delivery, the condition of the EpiSkin® was assessed by checking the pH and temperature indicators. EpiSkin® units were transferred to 12 well plates containing EpiSkin® maintenance medium (2 mL). […] The negative control was Dulbecco's phosphate buffered saline (PBS) and the positive control was an aqueous solution of sodium dodecyl sulphate (SDS, 5%, w/v).
The formulations were applied to the skin “without dilution”. An aliquot (10 μL) of the undiluted formulations and control substances were applied to three replicate EpiSkin® tissues using a positive displacement pipette. The formulations and controls were gently spread over the entire surface of the exposed skin using the applicator tip.
The EpiSkin® was exposed to the formulations and control substances for 15 min±30 s. The EpiSkin® surface was then rinsed with PBS (ca 25 mL) and returned to a well containing fresh Maintenance Medium (2 mL). […]
After the recovery period, EpiSkin® units were tapped dry and transferred to wells containing a solution of MTT in EpiSkin Assay Medium (2 mL, 0.3 mg/mL). […] The cell viability of each tissue was calculated from optical density absorption readings with reference to the negative controls, which were assigned the nominal value of 100% viability.
Standard statistical techniques were used to calculate ODblank mean: the average OD of the blank (acidified isopropanol containing) wells. The corrected OD for each sample or control was calculated by subtracting the value of ODblank mean from each reading: ODcorrected=ODraw−ODblank mean
The % Viability for each sample and positive control was calculated as follows: % Viability=(ODcorrected/mean ODnegative controls)×100 […]

Question: Which results are given for `CCCCCCCCCCCCOS(=O)(=O)[O-].[Na+]` [Aqueous SDS Solution (5%, w/v), sodium dodecyl sulphate]?
Answer: Mean Relative Viability per Treatment (%) (mean of three tissues, irritant (GHS category 2) if viability is 50% or less): 23.36%; Mean Relative Viability per Tissue (%) (per replicate tissue (Rep 1-3), 15 min exposure, 42 h recovery, sulphate): 19.00% and 36.63% and 14.46%; Relative Viability (%) (single readings, two per replicate tissue (Rep 1-3), 10 μL undiluted, 15 min exposure, 42 h recovery, negative control = 100%, sulphate): 19.05% and 18.95% and 36.18% and 37.08% and 13.81% and 15.12%
